Results published in US9611230B2, “1,3,4-oxadiazole benzoic acid compounds and their use for nonsense suppression and the treatment of disease” (PTC Therapeutics, Inc., priority 2004, dated 2017).
Several values for one entry are separate records, joined by “and”; a condition that tells them apart may be missing. Equal entries are not always repeated.

System: full-length luciferase protein produced by suppression of the premature termination codon
Experiment: Western blot of full-length luciferase after immunoprecipitation (epitope-tagged nonsense constructs)
Format: cell-based, Human
Settings: printed in the UAAA column of Table 3
From the text: The nonsense suppression activity in an assay as described above is shown in the Table 3 below, for a construct with a UAG nonsense mutation at position 190, followed by an adenine nucleotide in-frame, (UAGA); and a construct with a UAA nonsense mutation at position 190, followed by an adenine nucleotide in-frame, (UAAA).
Another assay of the present invention can evaluate compounds that promote nonsense mutation suppression. The luciferase constructs described above in FIG. 1 are engineered to harbor two epitope tags in the N-terminus of the luciferase protein. Based on luciferase protein production, these constructs qualitatively assess the level of translation-readthrough. The presence of the full-length luciferase protein produced by suppression of the premature termination codon is measured by immunoprecipitation of the suppressed luciferase protein (using an antibody against a His tag) followed by western blotting using an antibody against the second epitope (the Xpress™ epitope; Invitrogen®; Carlsbad, Calif.). These constructs are depicted in FIG. 2.
Cells that harbor the constructs of FIG. 2 show increased full-length protein production when treated with a compound of the present invention. After treatment for 20 hours, cells containing the constructs of FIG. 2 are collected and an antibody recognizing the His epitope is used to immunoprecipitate the luciferase protein. Following immunoprecipitation, western blotting is performed using the antibody to the Xpress™ epitope (Invitrogen®; Carlsbad, Calif.) to detect the truncated luciferase (produced when no nonsense suppression occurs) and to detect the full-length protein (produced by suppression of the nonsense codon). Treatment of cells with a test compound produces full-length protein and not a readthrough protein (See e.g. FIG. 3). The readthrough protein is produced if suppression of the normal termination codon occurs. Compounds of the present invention suppress the premature, i.e. nonsense mutation, but not the normal termination codon in the luciferase mRNA.

SMILES	western blot signal (POS WB)
CCOc1ccc(-c2cnc(-c3cccc(C(=O)O)c3)o2)cc1 [Compound 595]	POSWB
O=C(O)c1cccc(-c2cc(-c3ccc(Cl)cc3)on2)c1 [Compound No. 479, 3-[5-(4-chlorophenyl)isoxazol-3-yl]benzoic acid]	POSWB
O=C(O)c1ccc(-c2ncc(-c3ccc(F)cc3F)o2)cc1 [Compound No. 548, 4-[5-(2,4-difluorophenyl)oxazol-2-yl]benzoic acid]	POSWB

System: not given
Experiment: not given
Settings: not given

SMILES	melting point
CCOc1ccc(-c2cnc(-c3cccc(C(=O)O)c3)o2)cc1 [Compound 595]	223 to 224 °C
CC(C)c1ccc(-c2nc(-c3ccc(C(=O)O)cc3)no2)cc1 [Compound No. 275, 4-[5-(4-isopropylphenyl)-[1,2,4]oxadiazol-3-yl]benzoic acid]	210 to 213 °C
CC(C)c1ccc(-c2cnc(-c3cccc(C(=O)O)c3)[nH]2)cc1 [Compound No. 277, 3-[5-(4-isopropylphenyl)-1H-imidazol-2-yl]benzoic acid]	296 to 298 °C
Cc1cccc(-c2ccc(-c3nnc(-c4cccc(C(=O)O)c4)o3)cc2)c1 [Compound No. 281, 3-[5-(3′-methylbiphenyl-4-yl)-[1,3,4]oxadiazol-2-yl]benzoic acid]	240 to 242 °C
CC(C)c1ccc(-c2cnc(-c3cccc(C(=O)O)c3)o2)cc1 [Compound No. 288, 3-[5-(4-isopropylphenyl)-oxazol-2-yl]benzoic acid]	150 to 153 °C
CC(C)c1ccc(-c2csc(-c3cccc(C(=O)O)c3)n2)cc1 [Compound No. 289, 3-[4-(4-isopropylphenyl)thiazol-2-yl]-benzoic acid]	206 to 208 °C
CC(C)c1ccc(-c2cnc(-c3cccc(C(=O)O)c3)s2)cc1 [Compound No. 310, 3-[5-(4-Isopropyl-phenyl)thiazol-2-yl]benzoic acid]	218 to 220 °C
CC(C)c1ccc(-c2ncc(-c3cccc(C(=O)O)c3)[nH]2)cc1 [Compound No. 311, 3-[2-(4-isopropylphenyl)-3H-imidazol-4-yl]benzoic acid]	283 to 285 °C
CC(C)c1ccc(-c2nc(-c3cccc(C(=O)O)c3)cs2)cc1 [Compound No. 312, 3-[2-(4-isopropylphenyl)thiazol-4-yl]-benzoic acid]	193 to 195 °C
CC(C)c1ccc(-c2nc(-c3cccc(C(=O)O)c3)co2)cc1 [Compound No. 313, 3-[2-(4-isopropylphenyl)-oxazol-4-yl]benzoic acid]	236 to 239 °C
CC(C)c1ccc(-c2coc(-c3cccc(C(=O)O)c3)c2C(=O)O)cc1 [Compound No. 314, 2-(3-carboxyphenyl)-4-(4-isopropylphenyl)furan-3-carboxylic acid]	236 to 239 °C
CC(C)c1ccc(-c2ncc(-c3cccc(C(=O)O)c3)o2)cc1 [Compound No. 320, 3-[2-(4-isopropylphenyl)-oxazol-5-yl]-benzoic acid]	193 to 195 °C
CC(C)c1ccc(-c2ncc(-c3cccc(C(=O)O)c3)s2)cc1 [Compound No. 321, 3-[2-(4-isopropylphenyl)thiazol-5-yl]benzoic acid]	237 to 239 °C
CC(C)c1ccc(-c2ccc(-c3cccc(C(=O)O)c3)o2)cc1 [Compound No. 322, 3-[5-(4-isopropylphenyl)furan-2-yl]benzoic acid]	172 to 176 °C

Results, then the molecule that gave them:

melting point	SMILES
165 to 167 °C	CC(C)c1ccc(-c2nc(-c3cccc(C(=O)O)c3)ns2)cc1 [Compound No. 323, 3-[5-(4-isopropylphenyl)-[1,2,4]thiadiazol-3-yl]-benzoic acid]
> 300 °C	CC(C)c1ccc(-c2nnc(-c3ccc(C(=O)O)cc3)s2)cc1 [Compound No. 324, 4-[5-(4-isopropylphenyl)-[1,3,4]thiadiazol-2-yl]benzoic acid]
166 to 168 °C	CC(C)c1ccc(-c2nsc(-c3cccc(C(=O)O)c3)n2)cc1 [Compound No. 326, 3-[3-(4-isopropylphenyl)-[1,2, 4]thiadiazol-5-yl]benzoic acid]
220 to 222 °C	CC(C)c1ccc(-c2csc(-c3cccc(C(=O)O)c3)c2)cc1 [Compound No. 327, 3-[4-(4-isopropylphenyl)-thiophen-2-yl]-benzoic acid]
208 to 209 °C	CC(C)c1ccc(-c2cc(-c3cccc(C(=O)O)c3)cs2)cc1 [Compound No. 348, 3-[5-(4-isopropylphenyl)thiophen-3-yl]benzoic acid]
233 to 235 °C	CC(C)c1ccc(-c2ccc(-c3cccc(C(=O)O)c3)s2)cc1 [Compound No. 400, 3-[5-(4-isopropylphenyl)thiophen-2-yl]benzoic acid]
287 to 289 °C	COc1ccc(-c2n[nH]c(-c3cccc(C(=O)O)c3)n2)cc1 [Compound No. 424, 3-[5-(4-methoxy-phenyl)-2H-[1,2,4]triazol-3-yl]-benzoic acid]
293 to 295 °C	O=C(O)c1cccc(-c2cc(-c3ccc(Cl)cc3)on2)c1 [Compound No. 479, 3-[5-(4-chlorophenyl)isoxazol-3-yl]benzoic acid]
265 to 266 °C	O=C(O)c1cccc(-c2cc(-c3ccc(Cl)cc3)no2)c1 [Compound No. 503, 3-[3-(4-chlorophenyl)isoxazol-5-yl]benzoic acid]
233 to 234 °C	O=C(O)c1cccc(-c2nc(-c3ccccc3F)no2)c1 [Compound No. 506, 3-[3-(2-fluorophenyl)-[1,2,4]oxadiazole-5-yl] benzoic acid]
298 to 299 °C and 301 to 302 °C	O=C(O)c1ccc(-c2ncc(-c3ccc(F)cc3F)o2)cc1 [Compound No. 548, 4-[5-(2,4-difluorophenyl)oxazol-2-yl]benzoic acid]
270.5 to 272 °C	O=C(O)c1cccc(-c2cc(-c3ccc(F)cc3)[nH]n2)c1 [Compound No. 552, 3-[5-(4-fluorophenyl)-1H-pyrazol-3-yl]benzoic acid]
